Patent publication US7829595B2, “Rapid dissolution formulation of a calcium receptor-active compound” (Amgen Inc., priority 2003, dated 2010)
≈ marks a conversion by molar mass, not a printed value. Like-named read-outs stand apart in the source and are kept apart here.

Assay: Solubility of cinacalcet in water as a function of pH
Type: physicochemical
Method: Calcium receptor-active compounds are known in the art. One example of a calcium receptor-active compound is cinacalcet HCl, which is described, for example, in U.S. Pat. No. 6,001,884. Such calcium receptor-active compounds may be insoluble or sparingly soluble in water, particularly in their non-ionized state. […] However, when the pH is about 1, the solubility decreases to about 0.1 mg/mL. Such limited solubility can reduce the number of formulation and delivery options available for these calcium receptor-active compounds. Limited water solubility can also result in low bioavailability of the compounds.

- solubility (aqueous buffer, pH ranges from about 3 to about 5, read-out: solubility): ~1600 µg/mL (≈ 4480 µM)
- solubility (pH 1, simulated gastric fluid, pH about 1, read-out: solubility): ~100 µg/mL (≈ 280 µM)
- solubility (pH 7, water, neutral pH, read-out: solubility in water): < 1 µg/mL
Compound: C[C@@H](NCCCc1cccc(C(F)(F)F)c1)c1cccc2ccccc12 [cinacalcet, N-(1-(R)-(1-naphthyl)ethyl]-3-[3-(trifluoromethyl)phenyl]-1-aminopropane]
